{"source": "patent US20080286363A1", "about": "“Pharmaceutical Compositions for the Treatment of Inflammatory and Obstructive Airways Diseases” (priority 2005, published 2008)", "origin": "cited, not measured here", "conditions": "aerosol formulation, single administration of a metered dose, asthma", "data": [{"smiles": "C[N+]1(C)CCC(OC(=O)C(O)(c2ccccc2)C2CCCC2)C1.[Br-]", "note": "(racemic) [Compound B1, 3-[(Cyclopentyl-hydroxyphenylacetyl)oxy]-1,1-dimethylpyrrolidinium bromide]", "values": [{"measurement": "bronchodilation duration", "result": "up to 12 hours"}]}]}
